In patent publication US10842806B2, “Methods for treating ocular inflammatory disorders” (Massachusetts Eye and Ear Infirmary, priority 2011, dated 2020):

Tested on: WT BMDCs
Assay: BMDC maturation with AICAR plus adenosine kinase inhibitor or nucleoside transporter inhibitor
Assay type: cell-based, mice
Conditions: CD40, CD80, CD86, I-A^b by FACS
Protocol: FIG. 15 depicts the combined effect of AICAR and a nucleoside transporter or an adenosine kinase inhibitor on BMDC maturation. WT BMDCs were stimulated with LPS and 1 mM AICAR in the presence or absence of 0.1 mM IODO or 1 μM DPY. The number of CD11c-gated CD40, CD80, CD86 and I-A^b positive cells was measured by FACS. Bars represent mean±SD from three independent experiments. BMDCs were generated as previously described (Wang et al. (2005) IMMUNOL. LETT. 98:123-130). Briefly, bone marrow was flushed from the femurs and tibias of naive mice (6 to 8-week-old WT or AMPKα1 KO mice). The red blood cells were lysed using Red Blood Cell Lysing Buffer (Sigma). Approximately 2×10^6 cells were cultured in complete medium (RPMI 1640 medium containing 10% FBS, […], 10 mM HEPES [pH 7.4], 2 mM glutamine, 100 U/ml penicillin, and […]) including 10 ng/ml GM-CSF (Pepro Tech, London, England). Fresh media was added to the cells on day 4 of culture, and nonadherent cells and loosely adherent cells were collected as immature DCs on day 7. Immature DCs were stimulated with 100 ng/ml LPS (Salmonella typhimurium; Sigma) for 24 hours to obtain mature DCs. In some experiments, AICAR was added to the culture. […] To further study AICAR's suppressive effect, an adenosine kinase inhibitor (IODO) was used to inhibit AICAR conversion to ZMP. […]

Compound | Effect on AICAR-mediated suppression of co-stimulatory molecule expression (1 μM DPY with LPS and 1 mM AICAR) | Effect on downregulation of co-stimulatory molecule expression by AICAR (0.1 mM IODO with LPS and 1 mM AICAR)
OCCN(CCO)c1nc(N2CCCCC2)c2nc(N(CCO)CCO)nc(N3CCCCC3)c2n1 [DPY] | reversed | 
Nc1ncnc2c1c(I)cn2[C@@H]1O[C@H](CO)[C@@H](O)[C@H]1O [IODO] |  | did not affect
